Results on 16 compounds are retold here after patent US11999727B2 (Tango Therapeutics, Inc., priority 2020, dated 2024).

The subject of experiment [1] is HAP1 MTAP-intact cell line. The experiment in a line: SDMA in-cell western assay, HAP1 MTAP-intact. Format: cell-based. Conditions: Homo sapiens, HAP1, SDMA in-cell western, HAP1 MTAP-intact; read-out: MTAP HAP1 intact IC50. An outline of the steps:
(§1)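 Isogenic HAP1 pair: the MTAP-intact line expresses endogenous MTAP, and the deleted line is MTAP-null. Symmetric dimethylarginine was detected by in-cell western and IC50 values derived for each line.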

In experiment [2] the test system is HAP1 MTAP-deleted cell line. In words: Viability assay, MTAP-deleted cell line. Format: cell-based. Conditions: Homo sapiens, read-out: HAP1 MTAP deleted viability. An excerpt:
Table 1 additionally indicates IC50 values in a viability assay for the MTAP-deleted cell line (column 10), indicating the effect of treatment with compound on cell survival.

The test system of experiment [3] is HAP1 MTAP-deleted cell line. The experiment in a line: SDMA in-cell western assay, HAP1 MTAP-deleted. The format is cell-based. Conditions: for IC50: HAP1 MTAP-deleted. The gist of the method: as §1
Experiment [4] addresses T1, PRMT5 (Homo sapiens, UniProt O14744).
T1 construct: purchased Viva (custom protein)
In words: PRMT5 biochemical IC50 assay with no cofactor. Conditions: PRMT5, no cofactor. An excerpt: Table 1 indicates IC50 values (μM) against PRMT5 for exemplary compounds in the presence of SAM as cofactor, with no cofactor, and with MTA as cofactor, respectively (columns 4-6). […] Ki values can be calculated from the IC50 values as described in the Examples section. As detailed in the Examples section, for the assay performed in the presence of SAM, IC50=Ki×1.5 (Ki=IC50/1.5).

In experiment [5] the target is T1, PRMT5. The experiment in a line: PRMT5 biochemical IC50 assay with MTA as cofactor. Conditions: PRMT5, MTA as cofactor; read-out: MTA IC50.
Experiment [6] addresses T1, PRMT5. The experiment in a line: PRMT5 biochemical IC50 assay with SAM as cofactor. Conditions: PRMT5, SAM as cofactor; read-out: SAM IC50.
Setting [7] is: Homo sapiens, HAP1, SDMA in-cell western, read-out: HAP1 MTAP deleted IC50.
[8] abbreviates: IC50 ratio HAP1 MTAP-intact / HAP1 MTAP-deleted, SDMA in-cell western.
[9] abbreviates: Homo sapiens, HAP1, SDMA in-cell western, read-out: HAP 1 MTAP deleted IC50.
[10] abbreviates: read-out: No Cofactor/ rel IC50.
The mark [11] stands for this setting: HAP1, viability assay, MTAP-deleted cell line.

The structures appear in SMILES notation.

T1 sequence (O14744 whole entry): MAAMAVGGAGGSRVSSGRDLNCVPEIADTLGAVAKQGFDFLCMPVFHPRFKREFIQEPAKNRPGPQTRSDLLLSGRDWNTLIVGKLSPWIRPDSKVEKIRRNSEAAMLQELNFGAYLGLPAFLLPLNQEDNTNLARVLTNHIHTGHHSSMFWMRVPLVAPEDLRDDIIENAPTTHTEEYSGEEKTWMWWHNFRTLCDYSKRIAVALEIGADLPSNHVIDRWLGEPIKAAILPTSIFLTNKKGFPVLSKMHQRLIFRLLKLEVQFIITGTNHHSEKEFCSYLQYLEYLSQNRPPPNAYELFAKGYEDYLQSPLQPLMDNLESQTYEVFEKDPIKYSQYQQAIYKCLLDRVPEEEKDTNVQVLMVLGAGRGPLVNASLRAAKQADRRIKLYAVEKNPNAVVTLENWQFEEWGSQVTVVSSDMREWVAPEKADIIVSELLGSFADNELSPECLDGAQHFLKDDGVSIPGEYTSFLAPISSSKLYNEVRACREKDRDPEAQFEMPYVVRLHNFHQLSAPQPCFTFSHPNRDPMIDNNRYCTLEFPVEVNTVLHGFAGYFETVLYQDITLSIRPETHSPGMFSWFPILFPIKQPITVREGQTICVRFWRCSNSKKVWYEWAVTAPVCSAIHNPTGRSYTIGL
T1 sequence (Q9BQA1 whole entry partner): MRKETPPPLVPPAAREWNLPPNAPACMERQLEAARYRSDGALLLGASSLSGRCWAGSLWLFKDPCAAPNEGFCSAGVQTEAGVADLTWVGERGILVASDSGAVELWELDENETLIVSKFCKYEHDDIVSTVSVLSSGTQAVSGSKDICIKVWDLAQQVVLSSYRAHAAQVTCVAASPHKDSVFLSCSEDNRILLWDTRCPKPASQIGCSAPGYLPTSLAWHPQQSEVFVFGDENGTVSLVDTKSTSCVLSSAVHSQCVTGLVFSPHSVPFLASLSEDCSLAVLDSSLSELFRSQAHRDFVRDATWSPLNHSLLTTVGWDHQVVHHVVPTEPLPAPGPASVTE

For `CCc1cc(NC(=O)C(=O)N2C[C@H](C)C(F)(F)C[C@H]2c2ccc(F)c(F)c2)cnc1N` (single isomer, unassigned) [Compound 728], the IC50 in experiment [1] is above 1000 nM; in experiment [2] (HAP1, viability assay, HAP1 MTAP-deleted), above 10000 nM; in experiment [3] (setting [7]), above 1000 nM; at PRMT5 [4] (read-out: No Cofactor/rel IC50), above 500 nM; on PRMT5 [5], above 500 nM; on PRMT5 [6], above 500 nM. For the same compound, the MTAP intact/deleted ratio result in experiment [3] (setting [8]) is “C (an IC50 ratio of less than 3 fold)”.
Regarding `CCc1cc(NC(=O)C(=O)N2C[C@@H](C)CC[C@@H]2c2cccc([C@H]3CCN(C)C3)c2)cnc1N` [Compound 1342, N-(6-amino-5-ethylpyridin-3-yl)-2-((2R,5S)-5-methyl-2-(3-(1-methylpyrrolidin-3-yl)phenyl)piperidin-1-yl)-2-oxoacetamide], the IC50 in experiment [1] was 100 to 1000 nM; in experiment [2] (HAP1, viability, HAP1 MTAP-deleted cell line), below 1000 nM; in experiment [3] (setting [9]), below 100 nM; at PRMT5 [4] (setting [10]), below 50 nM; on PRMT5 [5] it was below 50 nM; on PRMT5 [6] it was below 50 nM. The “MTAP intact/deleted ratio” value in experiment [3] (setting [8]) was “A (an IC50 ratio greater than or equal to 10 fold)”.
In the case of `Cc1ccc([C@@H]2CC[C@@H](C)CN2C(=O)C(=O)Nc2cnc(N)c(C)c2)nc1` (racemic) [Compound 1005, N-(6-Amino-5-methyl-3-pyridyl)-2-[(2R,5S)-5-methyl-2-(5-methyl-2-pyridyl)-1-piperidyl]-2-oxo-acetamide], the IC50 in experiment [1] is above 1000 nM; in experiment [2] (setting [11]), 1000 to 10000 nM; in experiment [3] (setting [9]), 100 to 1000 nM; at PRMT5 [4] (read-out: No Cofactor/rel IC50), 50 to 500 nM; at PRMT5 [5], 50 to 500 nM; at PRMT5 [6], above 500 nM. Moreover, the MTAP intact/deleted ratio result in experiment [3] (setting [8]) is reported as “A (an IC50 ratio greater than or equal to 10 fold)”.
Take `Cc1cc(NC(=O)C(=O)N2C[C@@H](C)CC[C@@H]2c2cccc(S(C)(=O)=O)c2)cnc1N` (single isomer, unassigned) [Compound 901]: the IC50 in experiment [1] is above 1000 nM; in experiment [2] (setting [11]), above 10000 nM; in experiment [3] (setting [9]), above 1000 nM; at PRMT5 [4] (read-out: No Cofactor/rel IC50), above 500 nM; at PRMT5 [5], above 500 nM; on PRMT5 [6] it was above 500 nM. In experiment [3] (setting [8]), the MTAP intact/deleted ratio result is “C (an IC50 ratio of less than 3 fold)”.
For `C[C@H]1CC[C@@H](c2cc(F)cc(Cl)c2)N(C(=O)C(=O)Nc2cncc(C(N)=O)c2)C1` (single isomer, unassigned) [Compound 624], the IC50 in experiment [1] is above 1000 nM; in experiment [2] (HAP1, viability IC50, MTAP-deleted cell line) it was above 10000 nM; in experiment [3] (setting [9]) it was above 1000 nM; on PRMT5 [4] (read-out: No Cofactor/rel IC50), above 500 nM; at PRMT5 [5], above 500 nM; on PRMT5 [6], above 500 nM. Also, the MTAP intact/deleted ratio result in experiment [3] (setting [8]) was “B (an IC50 ratio greater than or equal to 3 fold but lower than 10 fold)”.
With `Cc1cc(NC(=O)C(=O)N2C[C@@H](C)CC[C@@H]2c2cccc(O)c2)cnc1N` (racemic) [Compound 187, rac-N-(6-amino-5-methylpyridin-3-yl)-2-((2R,5S)-2-(3-hydroxyphenyl)-5-methylpiperidin-1-yl)-2-oxoacetamide], the IC50 is 100 to 1000 nM in experiment [1]; 1000 to 10000 nM in experiment [2] (setting [11]); below 100 nM in experiment [3] (setting [7]); 50 to 500 nM on PRMT5 [4] (read-out: No Cofactor/rel IC50); below 50 nM on PRMT5 [5]; 50 to 500 nM on PRMT5 [6]. Further, the MTAP intact/deleted ratio result in experiment [3] (setting [8]) was “A (an IC50 ratio greater than or equal to 10 fold)”.
Regarding `Cc1ccc([C@H]2CC[C@@H](C)CN2C(=O)C(=O)Nc2cnc(N)c(C)c2)nc1` (racemic) [Compound 982, N-(6-amino-5-methyl-3-pyridyl)-2-[(2R,5R)-5-methyl-2-(5-methyl-2-pyridyl)-1-piperidyl]-2-oxo-acetamide], the IC50 in experiment [1] is above 1000 nM; in experiment [2] (setting [11]) it was above 10000 nM; in experiment [3] (setting [9]) it was 100 to 1000 nM; on PRMT5 [4] (read-out: No Cofactor/rel IC50), 50 to 500 nM; at PRMT5 [5] it was 50 to 500 nM; on PRMT5 [6], above 500 nM. Also, in experiment [3] (setting [8]), the MTAP intact/deleted ratio entry is listed as “B (an IC50 ratio greater than or equal to 3 fold but lower than 10 fold)”.
For `C[C@@H]1CC[C@@H](c2ccc(OC3CCOC3)cc2)N(C(=O)C(=O)Nc2cncc(C(N)=O)c2)C1` (mixture of isomers) [Compound 264, rac-5-{2-[(2R,5S)-5-Methyl-2-[4-(oxolan-3-yloxy)phenyl]piperidin-1-yl]-2-oxoacetamido}pyridine-3-carboxamide], the IC50 was above 1000 nM in experiment [1]; 1000 to 10000 nM in experiment [2] (setting [11]); below 100 nM in experiment [3] (setting [7]); 50 to 500 nM on PRMT5 [4] (read-out: No Cofactor/rel IC50); 50 to 500 nM on PRMT5 [5]; 50 to 500 nM on PRMT5 [6]. Also, the MTAP intact/deleted ratio entry in experiment [3] (setting [8]) is on record as “A (an IC50 ratio greater than or equal to 10 fold)”.
For the compound `COc1ncc(NC(=O)C(=O)N2CCCCC2C2CCCCC2)cc1C(N)=O` (single isomer, unassigned) [Compound 317, 5-(2-(2-cyclohexylpiperidin-1-yl)-2-oxoacetamido)-2-methoxynicotinamide], the IC50 in experiment [1] was above 1000 nM; in experiment [3] (SDMA in-cell western, read-out: HAP1 MTAP deleted IC50) it was above 1000 nM; on PRMT5 [4] (read-out: No Cofactor/rel IC50), above 500 nM; at PRMT5 [5] it was above 500 nM; at PRMT5 [6], above 500 nM. Further, the MTAP intact/deleted ratio entry in experiment [3] (setting [8]) is on record as “C (an IC50 ratio of less than 3 fold)”.
For `Cc1cncc(NC(=O)C(=O)N2CCCC[C@H]2c2cccc(C)c2)c1` (single isomer, unassigned) [Compound 4], the IC50 was above 1000 nM in experiment [1]; above 1000 nM in experiment [3] (setting [9]); above 500 nM at PRMT5 [4] (setting [10]); 50 to 500 nM at PRMT5 [5]; above 500 nM at PRMT5 [6]. Moreover, the “MTAP intact/deleted ratio” value in experiment [3] (setting [8]) is listed as “C (an IC50 ratio of less than 3 fold)”.
Consider `Cc1cc(NC(=O)C(=O)N2C[C@H](C)CC[C@H]2C23CC(C(N)=O)(C2)C3)cnc1N` (single isomer, unassigned) [Compound 1070], for which the IC50 was above 1000 nM in experiment [1]; above 1000 nM in experiment [3] (setting [7]); above 500 nM on PRMT5 [4] (read-out: No Cofactor/rel IC50); above 500 nM at PRMT5 [5]; above 500 nM on PRMT5 [6]. The MTAP intact/deleted ratio entry in experiment [3] (IC50 ratio HAP1 MTAP-intact vs HAP1 MTAP-deleted, SDMA in-cell western) is given as “B (an IC50 ratio greater than or equal to 3 fold but lower than 10 fold)”.
For the compound `Cc1cc(NC(=O)C(=O)N2C[C@H](C)CC[C@H]2c2ccc(NC3COC3)cc2)cnc1N` (racemic) [Compound 1048], the IC50 is 100 to 1000 nM in experiment [1]; below 100 nM in experiment [3] (setting [9]); 50 to 500 nM on PRMT5 [4] (read-out: No Cofactor/rel IC50); 50 to 500 nM at PRMT5 [5]; 50 to 500 nM on PRMT5 [6]. For the same compound, in experiment [3] (setting [8]), the MTAP intact/deleted ratio result was “B (an IC50 ratio greater than or equal to 3 fold but lower than 10 fold)”.
Consider `Cc1cncc(NC(=O)C(=O)N2C[C@@H](C)CC[C@@H]2c2cccs2)c1` (single isomer, unassigned) [Compound 76], for which the IC50 in experiment [1] was above 1000 nM; in experiment [2] (setting [11]) it was above 10000 nM; at PRMT5 [4] (setting [10]) it was above 500 nM; on PRMT5 [5], above 500 nM; at PRMT5 [6], above 500 nM.
Regarding `CC(=O)N1CCC(c2cccc([C@H]3CC[C@H](C)CN3C(=O)C(=O)Nc3cncc(C(N)=O)c3)c2)CC1` (single isomer, unassigned) [Compound 332], the IC50 in experiment [1] is above 1000 nM; in experiment [3] (setting [7]), above 1000 nM; at PRMT5 [4] (read-out: No Cofactor/rel IC50) it was above 500 nM; at PRMT5 [5], above 500 nM; at PRMT5 [6] it was above 500 nM. For the same compound, in experiment [3] (setting [8]), the MTAP intact/deleted ratio entry is “C (an IC50 ratio of less than 3 fold)”.
Take `COc1ncc(NC(=O)C(=O)N2C[C@@H](C)C(F)(F)C[C@@H]2c2ccc(F)cc2)cc1C(N)=O` (single isomer, unassigned) [Compound 1047]: the IC50 in experiment [1] is above 1000 nM; in experiment [3] (setting [9]), above 1000 nM; at PRMT5 [4] (read-out: No Cofactor/rel IC50) it was above 500 nM; on PRMT5 [5], above 500 nM; at PRMT5 [6], above 500 nM. Also, in experiment [3] (setting [8]), the MTAP intact/deleted ratio entry is listed as “C (an IC50 ratio of less than 3 fold)”.
Consider `Cc1cc(NC(=O)C(=O)N2C[C@H](C)CC[C@H]2C2CCCN(C)C2)cnc1N` (mixture of isomers) [Compound 832, N-(6-amino-5-methyl-3-pyridyl)-2-[(2R,5S)-5-methyl-2-(1-methyl-3-piperidyl)-1-piperidyl]-2-oxo-acetamide], for which the IC50 is above 1000 nM in experiment [1]; above 1000 nM in experiment [3] (setting [7]); above 500 nM on PRMT5 [4] (read-out: No Cofactor/rel IC50); 50 to 500 nM on PRMT5 [5]; above 500 nM on PRMT5 [6]. In addition, the MTAP intact/deleted ratio result in experiment [3] (setting [8]) was “C (an IC50 ratio of less than 3 fold)”.
